Data set [1] concerns domestic flies. In words: Insecticidal activity on domestic flies, laboratory test (gauze boxes). In kind it is in vivo. The note with it: 0.1% solution in 5% aqueous glucose solution; 50 flies per box; count in 72 hours. How it is done: (§1) Based on the compound there was prepared an insecticidal composition in the form of a 0.1% solution thereof in a 5% aqueous glucose solution. The activity of the insecticidal composition, according to the invention was tested on domestic flies. To this end, into the gauze-made boxes of 10x10 cm in size (6 boxes) 6-7-day flies of both sexes were placed at the rate of 50 individuals per each box. Into 5 boxes there were placed Petri dishes with a 5% aqueous glycose solutiono An insecticidal activity of the composition, according to the invention, was tested in com- parison with an insecticidal composition based on 0,0-dimethyl(1-hydroxy-2,2,2-trichloroethyl)phosphonate. The tests were also conducted in living and production premises. For this, Petri dishes containing a 0.1% aqueous solution of the insecticide of the invention, to which a 5% glucose solution was added, were put at a rate of 2-3 dishes per 20 m^2. The activity of the composition, according to the invention, was evaluated by a direct count of dead insects in 72 hours or by using the adhesive tapes and counting the number of flies on the tape prior and after the test.

In data set [2] the test system is domestic flies. The experiment in a line: Insecticidal activity on flies, large-scale test in living and production premises. In kind it is in vivo. The note with it: 0.1% aqueous solution with 5% glucose, 2-3 dishes per 20 m^2, living and production premises; 72 hours. How it is done:
as §1

The nature of another data set: Solubility (qualitative). To be noted: water, alcohols, acetone.

Each structure is given as a SMILES string.

With `O=C(CCl)NP(=O)(NCc1ccccc1)NCc1ccccc1` [Example 1, chloroacetylamidophosphoric acid dibenzylamide], the “Death of flies, % tests laboratory” value in the data set on domestic flies [1] was 94%. Besides, in the data set on domestic flies [2], the “Death of flies, % tests large-scale” value turned out to be 93%. Further, in “Solubility (qualitative)”, the solubility result is on record as “soluble in water, alcohols acetone”.
`Cc1ccc(C)c(NP(=O)(NC(=O)c2ccc(Cl)cc2)Nc2cc(C)ccc2C)c1` [Example 2, di-2,5-dimethylanil-ide of para-chlorobenzoylamidophosphoric acid]: in the data set with domestic flies [1], the “Death of flies, % tests laboratory” value is 92%. Moreover, the “Death of flies, % tests large-scale” value in the data set on domestic flies [2] was 91%. For the same compound, the solubility entry in “Solubility (qualitative)” is given as “soluble in water, alcohols, acetone”.
Take `O=C(NP(=O)(Nc1cccc(Cl)c1)Nc1cccc(Cl)c1)c1ccc(Cl)cc1` [Example 3, di-meta- chloranilide pf para-chlorobenzoylamidophosphoric acid]: the “Death of flies, % tests laboratory” value in the data set with domestic flies [1] came out at 87%. The “Death of flies, % tests large-scale” value in the data set with domestic flies [2] turned out to be 86%. In addition, the solubility result in the data set “Solubility (qualitative)” was “soluble in water, alcohols, acetone”.
`O=C(NP(=O)(Nc1ccccc1)Nc1ccccc1)c1ccc(Br)cc1` [Example 4, para-bromobenzoilamidophosphoric acid dianilide]: the “Death of flies, % tests laboratory” value in the data set with domestic flies [1] was found to be 94%. Besides, the “Death of flies, % tests large-scale” value in the data set with domestic flies [2] was 93%. For the same compound, in “Solubility (qualitative)”, the solubility result is “soluble in water, alcohols, acetone”.
Consider `O=C(NP(=O)(Nc1ccccc1Cl)Nc1ccccc1Cl)c1ccc(Br)cc1` [Example 5, para-bromo- bensoylamidophosphoric acid di-ortho-chloranilide], for which the “Death of flies, % tests laboratory” value in the data set with domestic flies [1] was found to be 100%. Also, the “Death of flies, % tests large-scale” value in the data set on domestic flies [2] amounted to 100%.
In the case of `O=C(NP(=O)(Nc1ccc(Cl)cc1Cl)Nc1ccc(Cl)cc1Cl)c1ccc(Br)cc1` [Example 6, para-bromobenzoilamidophosphoric acid di-2,4-dichloranilide], in the data set on domestic flies [1], the “Death of flies, % tests laboratory” value was found to be 100%. The “Death of flies, % tests large-scale” value in the data set with domestic flies [2] stood at 100%. Moreover, the solubility entry in the data set “Solubility (qualitative)” is given as “soluble in water, alcohols, acetone”.
Turning to `COP(=O)(NC(=O)c1ccc(Cl)c([N+](=O)[O-])c1)OC` [Example 7, dimethyl ether of 3-mitro-4-chlorobenzoylamidiphos-phoric acid], in the data set on domestic flies [1], the “Death of flies, % tests laboratory” value is recorded as 76%. Further, the “Death of flies, % tests large-scale” value in the data set on domestic flies [2] is 75%. Further, the solubility result in the data set “Solubility (qualitative)” is reported as “soluble in water, alcohols, acetone”.
With `CCOP(=O)(NC(=O)c1ccc(Cl)c([N+](=O)[O-])c1)OCC` [Example 8, diethyl ether of 3-nitro-4-chlorobenzoylamidophosphoric acid], the “Death of flies, % tests laboratory” value with domestic flies [1] amounted to 98%. For the same compound, the “Death of flies, % tests large-scale” value with domestic flies [2] was determined as 97%. Besides, in the data set “Solubility (qualitative)”, the solubility entry was “soluble in water, alcohols, acetone”.

The values above are taken from patent EP0407583A1, “DERIVATIVES OF DICHLOR[…] ACYLAMIDO[…] AND INSECTICIDAL, FU[…] HEMATOCIDAL PREPARATIONS BASED ON THEM” (priority 1989, dated 1990).
